According to US20240270821A1, “GIP/GLP1/GCG TRI-RECEPTOR AGONISTS AND USES THEREOF” (priority 2023, published 2024):
Starred links: 1 amine or outer side, 2 acyl side, 3 side chain; linkers in the order of their positions; H or OH if unused. Non-standard residues stand in square brackets, D forms with d. Groups on a side chain read outwards from the residue. *: point of attachment. C20 diacid = O=C(O)CCCCCCCCCCCCCCCCCCC(=O)*; C18 diacid = O=C(O)CCCCCCCCCCCCCCCCC(=O)*; γGlu = O=C(O)[C@H](CCC(=O)[*:2])N[*:1]; αMeL = CC(C)C[C@](C)(N)C(=O)O; Dab = NCC[C@H](N)C(=O)O; Dap = NC[C@H](N)C(=O)O; AEEA = NCCOCCOCC(=O)O; Aib = CC(C)(N)C(=O)O

How the values were obtained:
Type in all cases: cell-based
hGIPR [1] = biological target: T1, hGIPR (Homo sapiens, UniProt P48546); test: Functional cAMP activity in the presence of 1% HSA; details: read-out: cAMP Rel EC50, hGIPR
T1 sequence (P48546 22-466): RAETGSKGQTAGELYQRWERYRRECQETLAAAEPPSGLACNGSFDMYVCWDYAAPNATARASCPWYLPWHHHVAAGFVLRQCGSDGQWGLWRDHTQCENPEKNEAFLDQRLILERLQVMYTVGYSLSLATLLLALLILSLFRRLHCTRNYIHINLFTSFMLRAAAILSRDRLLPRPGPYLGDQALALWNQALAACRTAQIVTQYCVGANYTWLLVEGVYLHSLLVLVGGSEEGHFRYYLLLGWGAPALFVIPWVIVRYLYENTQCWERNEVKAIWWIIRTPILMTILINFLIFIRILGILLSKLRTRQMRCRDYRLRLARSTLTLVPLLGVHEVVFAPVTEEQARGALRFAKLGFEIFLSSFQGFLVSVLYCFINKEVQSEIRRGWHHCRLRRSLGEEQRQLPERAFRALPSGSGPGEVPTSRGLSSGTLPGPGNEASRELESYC

hGLP-1R [2] = biological target: T2, hGLP-1R (Homo sapiens, UniProt P43220); test: Functional cAMP activity in the presence of 1% HSA; details: read-out: cAMP Rel EC50, hGLP-1R
human GcgR = human GcgR (Homo sapiens, UniProt P47871); test: Functional cAMP activity in the presence of 1% HSA; details: read-out: cAMP Rel EC50, hGcgR
hGIPR [3] = biological target: T1, hGIPR; test: Functional cAMP activation in the presence of 0.1% casein (no HSA); details: in the presence of 0.1% casein (no HSA); geometric mean; read-out: Relative cAMP EC50, hGIPR;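 as to Relative cAMP EC50, hGIPR: intracellular cAMP rise after 30 min at 37 °C read by HTRF against a standard curve, scaled between buffer alone (0%) and top control ligand concentration (100%), four-parameter fit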;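 as to Relative cAMP EC50, hGLP-1R: intracellular cAMP rise after 30 min at 37 °C read by HTRF, normalized between buffer only (0%) and maximal control ligand (100%), four-parameter variable-slope fit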;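 as to Relative cAMP EC50, hGcgR: intracellular cAMP rise after 30 min at 37 °C, read by HTRF against a cAMP standard curve, scaled from buffer only (0%) to maximal control ligand response (100%)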
hGLP-1R [4] = biological target: T2, hGLP-1R; test: as above; details: in the presence of 0.1% casein (no HSA); geometric mean; read-out: Relative cAMP EC50, hGLP-1R
hGcgR = hGcgR (Homo sapiens, UniProt P47871); test: as above; details: in the presence of 0.1% casein (no HSA); geometric mean; read-out: Relative cAMP EC50, hGcgR;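 also: intracellular cAMP rise after 30 min at 37 °C, read by HTRF against a cAMP standard curve, scaled from buffer only (0%) to maximal control ligand response (100%)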
Chain of hGcgR (P47871 26-477): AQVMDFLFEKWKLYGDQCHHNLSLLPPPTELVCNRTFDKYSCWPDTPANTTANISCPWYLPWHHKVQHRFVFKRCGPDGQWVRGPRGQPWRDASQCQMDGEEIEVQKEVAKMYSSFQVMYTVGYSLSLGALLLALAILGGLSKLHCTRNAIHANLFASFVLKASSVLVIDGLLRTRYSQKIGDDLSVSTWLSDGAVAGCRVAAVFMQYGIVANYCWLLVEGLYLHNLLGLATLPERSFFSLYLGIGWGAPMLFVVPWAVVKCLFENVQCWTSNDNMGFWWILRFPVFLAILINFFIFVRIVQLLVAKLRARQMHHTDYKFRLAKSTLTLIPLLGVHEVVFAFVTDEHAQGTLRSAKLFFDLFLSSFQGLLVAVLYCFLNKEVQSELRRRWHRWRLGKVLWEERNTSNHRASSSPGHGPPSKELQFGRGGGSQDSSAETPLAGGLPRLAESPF

T2 sequence (P43220 24-463): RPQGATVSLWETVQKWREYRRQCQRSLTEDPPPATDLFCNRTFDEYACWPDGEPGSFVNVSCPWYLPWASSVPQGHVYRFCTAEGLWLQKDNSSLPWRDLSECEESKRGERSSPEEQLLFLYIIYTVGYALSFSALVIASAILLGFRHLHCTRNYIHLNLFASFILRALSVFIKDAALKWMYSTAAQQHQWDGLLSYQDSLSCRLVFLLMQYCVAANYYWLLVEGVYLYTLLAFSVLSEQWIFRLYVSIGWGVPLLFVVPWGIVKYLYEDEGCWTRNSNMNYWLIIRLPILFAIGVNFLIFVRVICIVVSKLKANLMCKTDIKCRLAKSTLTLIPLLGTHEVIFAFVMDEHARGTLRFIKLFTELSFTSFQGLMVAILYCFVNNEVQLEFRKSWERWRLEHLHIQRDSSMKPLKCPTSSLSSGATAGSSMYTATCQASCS
Chain of human GcgR (P47871 26-477): as the sequence (P47871 26-477) above

Substance | EC50 (hGIPR [1]) [nM] | EC50 (hGLP-1R [2]) [nM] | EC50 (human GcgR) [nM] | EC50 (hGIPR [3]) [nM] | EC50 (hGLP-1R [4]) [nM] | EC50 (hGcgR) [nM]
H-Y[Aib]QGTFTSDFSK[αMeL]LDKK([AEEA-γGlu-C20 diacid])AQ[Aib]AFIEYLLAGGPSSGAPPPSGS-NH2 [Example 14] | 34.7 | 232 | 1420 | 0.17 | 1.67 | 7.23
H-Y[Aib]QGTFTSDFSK[αMeL]LDKK([AEEA-γGlu-C20 diacid])AQ[Aib]AFIEYLLAGGPSSGEPPPGGS-NH2 [Example 9] | 41.8 | 402 | 1430 | 0.205 | 1.61 | 7.19
H-Y[Aib]QGTFTSDFSK[αMeL]LDKK([AEEA-γGlu-C20 diacid])AQ[Aib]AFIEYLLAGGPSSGEPPPSGG-NH2 [Example 6] | 46.6 | 446 | 1380 | 0.232 | 1.95 | 6.89
H-Y[Aib]QGTFTSDFSK[αMeL]LDKK([AEEA-γGlu-C20 diacid])AQ[Aib]AFIEYLLEGAPSSGAPPPSEG-NH2 [Example 47] | 154 | 1270 | 2140 | 0.388 | 3.4 | 5.61
H-Y[Aib]QGTFTSDFSK[αMeL]LDKK([AEEA-γGlu-C20 diacid])AQ[Aib]AFIEYLLEGGPSSGAPPP[γGlu]EG-NH2 [Example 52] | 111 | 1250 | 1740 | 0.449 | 5.18 | 5.84
H-Y[Aib]QGTFTSDFSK[αMeL]LDKK([AEEA-γGlu-C20 diacid])AQ[Aib]AFIEYLLEGGPSSGAPPP[γGlu]GE-NH2 [Example 53] | 113 | 1030 | 1780 | 0.518 | 3.31 | 4.19
H-Y[Aib]QGTFTSDFSK[αMeL]LDKK([AEEA-γGlu-C20 diacid])AQ[Aib]AFIEYLLEGGPSSGEPPPEEG-NH2 [Example 35] | 194 | 1130 | 1390 | 0.55 | 3.05 | 4.32
H-Y[Aib]QGTFTSDFSK[αMeL]LDKK([AEEA-γGlu-C20 diacid])AQ[Aib]AFIEYLLEGGPSSGEPPPGEG[AEEA]-NH2 [Example 54] | 168 | 1300 | 1940 | 0.502 | 3.95 | 3.77
H-Y[Aib]QGTFTSDFS[Dab][αMeL]LDKK([AEEA-γGlu-C18 diacid])AQ[Aib]AFIEYLIE[Aib]GPSSGAPPPSGS-NH2 [Example 799] | 18.4 | 179 | 574 | 0.0668 | 0.462 | 1.64
H-Y[Aib]QGTFTSDFS[Dab][αMeL]LDKK([AEEA-γGlu-C18 diacid])AQ[Aib]AFIEYLLE[Aib]GPSSGAPPPSGS-NH2 [Example 133] | 23.1 | 1180 | 642 | 0.15 | 3.6 | 1.64
H-Y[Aib]QGTFTSDFS[Dap][αMeL]LDKK([AEEA-γGlu-C18 diacid])AQ[Aib]AFIEYLIE[Aib]GPSSGAPPPSGS-NH2 [Example 800] | 40.2 | 164 | 2500 | 0.283 | 0.486 | 21
H-Y[Aib]QGTFTSDFS[Dap][αMeL]LDKK([γGlu-γGlu-C18 diacid])AQ[Aib]AFIEYLLE[Aib]GPSSGAPPPSGS-NH2 [Example 203] | 19 | 532 | 1160 | 0.125 | 4.72 | 6.92
